Test results published in ChEMBL document CHEMBL4342527, “Discovery of Novel Fungal Lanosterol 14α-Demethylase (CYP51)/Histone Deacetylase Dual Inhibitors to Treat Azole-Resistant Candidiasis” (J Med Chem, 2020).
Converted amounts (≈) assume the structure as drawn. The source made the active and inactive calls. The rule behind the calls is not given here.

How the values were obtained:
[1] = Selectivity index, ratio of IC50 for HUVEC to MIC80 for azole-resistant Candida albicans 7781; format: toxicity; conditions: human
Candida albicans [2] = test: Antifungal activity against azole-resistant Candida albicans 0304103 infected in ICR mouse assessed as inhibition of fungal infection in kidney at 20 mg/kg, ip qd for 5 days and measured on day 6 by periodic acid schiff staining-based histological analysis; format: functional, organism-based
Candida albicans [3] = test: Antifungal activity against azole-resistant Candida albicans 0304103 infected in ICR mouse assessed as mean survival time at 20 mg/kg, ip qd for 5 days (reference value: 10 days); format: functional
[4] = Selectivity index, ratio of IC50 for human A549 cells to MIC80 for azole-resistant Candida albicans 0304103; format: toxicity
Candida albicans [5] = test: Antifungal activity against azole-resistant Candida albicans 0304103 infected in ICR mouse assessed as reduction in fungal burden in kidney at 20 mg/kg, po qd for 5 days measured 24 hrs post-last dose; format: functional, organism-based
A549 = test: Cytotoxicity against human A549 cells assessed as reduction in cell viability after 48 hrs by CCK-8 assay based spectrophotometric analysis; conditions: A549, 48 h
Candida albicans [6] = test: Antifungal activity against Candida albicans 0304103 assessed as inhibition of yeast to hypha morphological transition at 8 ug/ml after 4 hrs by differential interference contrast microscopic analysis relative to control; format: functional; conditions: Candida albicans, 0304103, 4 h
[7] = Selectivity index, ratio of IC50 for human A549 cells to MIC80 for azole-resistant Candida albicans 4108; format: toxicity
Candida albicans [8] = test: Antifungal activity against azole-sensitive Candida albicans SC5314 after 48 hrs by spectrophotometry-based serial microdilution method; format: functional; conditions: Candida albicans, SC5314, 48 h; read-out: MIC80
[9] = molecular target: T1, Lanosterol 14-alpha demethylase (Candida albicans (strain SC5314 / ATCC MYA-2876) (Yeast), UniProt P10613); test: Inhibition of CYP51 in azole-resistant Candida albicans 0304103 assessed as eburicol level at 0.5 ug/ml after 24 hrs by GC-MS analysis relative to control; design: scale not given: the % may be the effect or the level left
[10] = Selectivity index, ratio of IC50 for human A549 cells to MIC80 for azole-resistant Candida albicans 7781; format: toxicity
[11] = Selectivity index, ratio of IC50 for HUVEC to MIC80 for azole-resistant Candida albicans 0304103; format: toxicity; conditions: human
Candida albicans [12] = test: Inhibition of yeast to hypha transition in azole resistant Candida albicans 0304103 assessed as down regulation of TEC1 gene expression at 32 ug /ml after 16 hrs by SYBR Green I dye based RT-PCR analysis; format: functional, organism-based
[13] = Selectivity index, ratio of IC50 for HUVEC to MIC80 for azole-resistant Candida albicans 4108; format: toxicity; conditions: human
Candida albicans [14] = test: Inhibition of yeast to hypha transition in azole resistant Candida albicans 0304103 assessed as down regulation of EFG1 gene expression at 32 ug /ml after 16 hrs by SYBR Green I dye based RT-PCR analysis; format: functional, organism-based
[15] = Selectivity index, ratio of IC50 for HUVEC to MIC80 for azole-resistant Candida tropicalis 5008; format: toxicity; conditions: human
Candida albicans [16] = test: Antifungal activity against azole-resistant Candida albicans 4108 after 48 hrs by spectrophotometry-based serial microdilution method; format: functional; conditions: Candida albicans, 4108, 48 h
Candida albicans [17] = test: Fungistatic activity agaisnt Candida albicans 0304103 at 16 ug/ml preincubated for up to 24 hrs followed by replating on SDA plate and measured after 48 hrs by time kill assay; format: functional, organism-based
[18] = molecular target: T1, Lanosterol 14-alpha demethylase; test: Inhibition of CYP51 in azole-resistant Candida albicans 0304103 assessed as obtusifoliol level at 0.5 ug/ml after 24 hrs by GC-MS analysis relative to control; design: scale not given: the % may be the effect or the level left
Candida albicans [19] = test: Inhibition of HDAC in azole-resistant Candida albicans 0304103 assessed as reduction in MDR1 gene expression at 32 ug/ml after 16 hrs by SYBR Green-1 dye based RT-PCR analysis; conditions: 304103
Candida albicans [20] = test: Antifungal activity against Candida albicans 0304103 assessed as inhibition of yeast to hypha morphological transition at 1 ug/ml after 4 hrs by differential interference contrast microscopic analysis relative to control; format: functional; conditions: Candida albicans, 0304103, 4 h

T1 sequence (P10613 whole entry): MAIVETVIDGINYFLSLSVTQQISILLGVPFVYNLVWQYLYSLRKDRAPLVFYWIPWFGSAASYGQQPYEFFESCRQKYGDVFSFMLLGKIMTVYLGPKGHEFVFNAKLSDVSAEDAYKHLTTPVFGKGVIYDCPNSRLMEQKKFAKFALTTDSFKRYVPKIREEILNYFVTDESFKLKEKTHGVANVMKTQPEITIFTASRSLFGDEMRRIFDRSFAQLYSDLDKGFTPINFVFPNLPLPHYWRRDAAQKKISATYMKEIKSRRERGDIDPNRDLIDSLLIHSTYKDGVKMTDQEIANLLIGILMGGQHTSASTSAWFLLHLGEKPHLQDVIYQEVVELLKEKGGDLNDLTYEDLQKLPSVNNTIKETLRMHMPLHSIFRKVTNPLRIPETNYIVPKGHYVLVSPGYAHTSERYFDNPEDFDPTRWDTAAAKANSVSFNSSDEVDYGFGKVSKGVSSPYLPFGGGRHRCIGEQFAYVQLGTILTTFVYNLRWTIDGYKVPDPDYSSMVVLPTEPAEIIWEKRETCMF

Row | Structure (SMILES) | selectivity ratio [1] | inhibition (Candida albicans [2]) | MST (Candida albicans [3]) [days] | selectivity ratio [4] | Activity (Candida albicans [5]) | IC50 (A549) [µM] | selectivity ratio [7] | MIC80 (Candida albicans [8]) [µg/mL] | Activity [9] [%] | selectivity ratio [10] | selectivity ratio [11] | inhibition (Candida albicans [12]) | selectivity ratio [13] | inhibition (Candida albicans [14]) | selectivity ratio [15] | MIC80 (Candida albicans [16]) [µg/mL] | other results
1 | CN(Cc1ccc(-n2cnn(CCCCc3ccc(C(=O)NO)cc3)c2=O)cc1)CC(O)(Cn1cncn1)c1ccc(F)cc1F (racemic) | 2 to 16 | Active | 20 | 2 to 16 | Active | 6.7 to 25.4 | 2 to 16 | 4 (≈ 6.32 µM) | 13.22 | 2 to 16 | 2 to 16 | Active | 2 to 16 | Active | 2 to 16 | 8 (≈ 12.6 µM) | inhibition at 8 µg/mL (Candida albicans [6]): 100%
2 | CN(Cc1ccc(OCCCOc2ccc(CC(=O)NO)cc2)cc1)CC(O)(Cn1cncn1)c1ccc(F)cc1F (racemic) | 2 to 16 | Active | 16.5 | 2 to 16 | Active | 6.7 to 25.4 | 2 to 16 | 0.125 (≈ 0.215 µM) | 65.4 | 2 to 16 | 2 to 16 | Active | 2 to 16 | Active | 2 to 16 | 0.5 (≈ 0.86 µM) | Activity (Candida albicans [17]): Active; Activity [18]: 7.59%; inhibition (Candida albicans [19]): Active; inhibition at 1 µg/mL (Candida albicans [20]): 100%
